This note sets out measurements from US9980953B2, “Combined composition for preventing or treating cancer comprising a benzophenone thiazole derivatives as a VDA and topoisomerase inhibitor” (CHONG KUN DANG PHARMACEUTICAL CORP., priority 2016, dated 2018).

Series [1] relates to HCT116 xenograft. The experiment in a line: Anti-cancer effect in a HCT116 xenograft mouse model. In kind it is in vivo, Athymic nude mouse (Hsd:Athymic Nude-Foxn1nu) male mice. The following applies: formula 1 5 mg/kg once a week injection, irinotecan 20 mg/kg once per 4 days injection, intraperitoneal, 4 weeks. On the procedure:
A human colorectal cancer cell line, HCT116 was purchased from ATCC (USA). The HCT116 cell line was maintained with RPMI1640 (Gibco, USA) including 10% fetal bovine serum (FBS; Gibco, USA).
The human colorectal carcinoma, HCT116 cell was subcutaneously administered in Athymic nude mouse (Hsd:Athymic Nude-Foxn1^nu) male mice (5×10^6 cell/head), and used in experiments when the size of tumor became 150-200 mm^3.
A compound of formula 1 was prepared by the preparation method disclosed in International Laid-open Patent Publication WO 2009-119980, and prepared at 0.5 mg/ml concentration by dissolving with 0.9% saline solution.
Irinotecan (Jeilpharm, Korea) was prepared at 2 mg/ml concentration by diluting with 5% dextrose solution.
The anti-cancer effect of the compound of formula 1 and irinotecan was estimated in the HCT116 xenograft model. […]
All the experimental groups were intraperitoneally administered for 4 weeks. Toxicity was observed by measuring weight of mice, and the growth of tumor was measured using calipers during experimental period. The volume of tumor was calculated according to the following calculation formula. tumor volume=(length×width^2)/2 […]

In series [2] the test system is Colo205 xenograft. The experiment in a line: Anti-cancer effect in a Colo205 xenograft mouse model. Type of series: in vivo, BALB/c-nu/nu male mice. As to conditions: irinotecan 20 mg/kg once per 4 days injection; for size of tumor compared to administration group of an excipient: formula 1 4 mg/kg every day oral, during administration period (10 weeks); for dead mice: observed for 85 days, formula 1 4 mg/kg daily oral. From the text: A human colorectal cancer cell line, Colo205 was purchased from ATCC (USA). The Colo205 cell line was maintained with RPMI1640 (Gibco, USA) including 10% fetal bovine serum (FBS; Gibco, Grand Island, N.Y., USA) and 1% antibiotics (Gibco, USA).
The human colorectal carcinoma, Colo205 cell was subcutaneously administered in BALB/c-nu/nu male mice (5×10^6 cell/head), and after grouping in order to making an average size of tumor 165˜167 mm^3, used in experiments.
A compound of formula 1 was prepared by the preparation method disclosed in International Laid-open Patent Publication WO 2009-119980, and prepared at 0.4 mg/ml concentration by dissolving with distilled water.
Irinotecan (Boryung, Korea) was prepared at 2 mg/ml concentration by diluting with 5% glucose saline solution. The solution to be used was prepared on the day of use, and remained solution was discarded.
The anti-cancer effect of the compound of formula 1 and irinotecan was estimated in the Colo205 xenograft model. Experimental groups were divided into the following administration groups. • Control group: vehicle • Single administration group of the compound of formula 1: the compound of formula 1 (4 mg/kg, every day, oral) • Single administration group of irinotecan: irinotecan (20 mg/kg, once per 4 days, injection) • Coadministration group: the compound of formula 1 (4 mg/kg, every day, oral), irinotecan (20 mg/kg, once per 4 days, injection)
All the experimental groups were orally and intraperitoneally administered for 10 weeks. Toxicity was observed by measuring weight of mice, and the growth of tumor was measured using calipers during experimental period. The volume of tumor was calculated according to the following calculation formula. tumor volume=(length×width^2)/2
The data of size of tumor, regression of tumor, and body weight changes was tested using Bartlett's test at significance level α=0.05, and as a result of the test, data having no significance was tested using one-way analysis of variance at significance level α=0.05, and data having significance was tested using Kruskal-Wallis test at significance level α=0.05.
Statistical analysis between each group was performed using GraphPad PRISM® Version 5.0 (GraphPad Software, USA).
Vehicle administration group was euthanized at the day 43 because cancer became too big.

In the case of `COc1cc(C(=O)c2ccc(-c3csc(NC(=O)[C@@H](N)C(C)C)n3)cc2-n2cncn2)cc(OC)c1OC` [compound of formula 1, (S)-N-(4-(3-(1H-1,2,4-triazol-1-yl) -4-(3,4,5-trimethoxybenzoyl)phenyl)thiazol-2-yl)-2-amino-3-methylbutanamide], the “size of tumor compared to administration group of an excipient” value in series [1] and in series [2] was “significantly decreased” throughout. Moreover, in series [2], the dead mice is listed as 8 mice.

Turning to `CCc1c2c(nc3ccc(OC(=O)N4CCC(N5CCCCC5)CC4)cc13)-c1cc3c(c(=O)n1C2)COC(=O)[C@]3(O)CC` [irinotecan], in series [1], the “size of tumor compared to administration group of an excipient” value is listed as “significantly decreased”. Besides, in series [2], the “size of tumor compared to administration group of an excipient” value was “significantly decreased” and the dead mice entry was “no dead subject”.
